# Test results: patent US11464770B2, “Anticancer pharmaceutical composition” (NATIONAL CANCER CENTER, priority 2016, dated 2022)
# Like-named read-outs stand apart in the source and are kept apart here.
# Experiments:
# [1] = system: cervical carcinoma cell lines; test: Cell based assay, cell viability (CellTiter-Glo), cervical carcinoma cell lines; conditions: Homo sapiens; HeLa cells
# Description: (§1) Commercially available bladder cancer, prostate cancer, lung cancer, breast cancer, blood cancer, pancreatic cancer, colorectal cancer, brain cancer, neuroblastoma, melanoma, liver cancer, cervical carcinoma, ovarian cancer, renal cancer, and papilloma cell lines were each treated with trypsin-EDTA and cultured, followed by being seeded in each well of a 96 well plate. […] The treated cells were additionally cultured for 72 hours, and cell viability was measured by using an ATP detection method (CellTiter-Glo® Luminescent Cell Viability Assay, Promega).
# [2] = system: lung cancer cell lines (e.g. NCI-H23, NCI-H1229); test: Cell based assay, cell viability (CellTiter-Glo), lung cancer cell lines; conditions: Homo sapiens, 72 hours treatment, CellTiter-Glo
# Description: (§2) Commercially available bladder cancer, prostate cancer, lung cancer, breast cancer, blood cancer, pancreatic cancer, colorectal cancer, brain cancer, neuroblastoma, melanoma, liver cancer, cervical carcinoma, ovarian cancer, renal cancer, and papilloma cell lines were each treated with trypsin-EDTA and cultured, followed by being seeded in each well of a 96 well plate. After 24 hours of treatment at constant temperature, the respective cells were treated with the candidate compound so that a final concentration became 0 to 2 μM. The treated cells were additionally cultured for 72 hours, and cell viability was measured by using an ATP detection method (CellTiter-Glo® Luminescent Cell Viability Assay, Promega).
# [3] = system: RT4: human urinary bladder transitional cell papilloma; test: Cell based assay, cytotoxicity in RT4 papilloma cells (selectivity); conditions: Homo sapiens, RT-4; RT4 cells
# Description: as §1
# [4] = system: ovarian cancer cell lines; test: Cell based assay, cell viability (CellTiter-Glo), ovarian cancer cell lines; conditions: Homo sapiens; OVCAR-3 cells
# Description: as §2
# [5] = A549 cells, read-out: IC50, lung cancer cell line A549
# [6] = DMS 114 cells, read-out: IC50, lung cancer cell line DMS 114
# [7] = NCI-H23 cells, read-out: IC50, lung cancer cell line NCI-H23
# [8] = NCI-H460 cells, read-out: IC50, lung cancer cell line NCI-H460
# [9] = NCI-H522 cells, read-out: IC50, lung cancer cell line NCI-H522
# [10] = NCI-H1299 cells, read-out: IC50, lung cancer cell line NCI-H1299
# [11] = NCI-H1437 cells, read-out: IC50, lung cancer cell line NCI-H1437
SMILES,IC50 [1],"IC50 [2, 5]","IC50 [2, 6]","IC50 [2, 7]","IC50 [2, 8]","IC50 [2, 9]","IC50 [2, 10]","IC50 [2, 11]",IC50 [4],"IC50 ([2]; MRC-5 cells, read-out: IC50)",IC50 [3]
"CC(=O)c1c(SCc2ccccc2)[nH]c2c(Br)ccc(Cl)c2c1=O [Compound 3, 3-acetyl-2-(benzylthio)-8-bromo-5-chloroquinolin-4(1H)-one]",> 10000 nM,> 2000 nM,> 2000 nM,> 2000 nM,> 2000 nM,> 2000 nM,> 2000 nM,> 10000 nM,> 2000 nM,> 2000 nM,> 10000 nM
CC(=O)c1c([S+]([O-])Cc2ccccc2)nc2c(Br)ccc(Cl)c2c1O (centres unmarked) [Compound 4],> 10000 nM,1970 nM,> 2000 nM,920 nM,1650 nM,> 2000 nM,1400 nM,> 2000 nM,810 nM,910 nM,> 10000 nM
"CSc1c(C(C)=O)c(=O)c2cc(F)ccc2n1C [Compound 7, 3-acetyl-6-fluoro-1-methyl-2-(methylthio)quinolin-4(1H)-one]",> 10000 nM,> 2000 nM,> 2000 nM,> 2000 nM,> 2000 nM,> 2000 nM,> 2000 nM,> 10000 nM,> 2000 nM,> 2000 nM,> 10000 nM
"CSc1[nH]c2ccc(F)cc2c(=O)c1C(C)=O [Compound 8, 1-(6-fluoro-4-hydroxy-2-(methylthio)quinolin-3-yl)ethan-1-one]",> 10000 nM,> 2000 nM,> 2000 nM,> 2000 nM,> 2000 nM,> 2000 nM,> 2000 nM,> 10000 nM,> 2000 nM,> 2000 nM,> 10000 nM
"CC(=O)c1c([S+](C)[O-])n(C(=O)c2ccc(Br)cc2)c2c(Br)ccc(Cl)c2c1=O (centres unmarked) [Compound 9, 3-acetyl-8-bromo-1-(4-bromobenzoyl)-5-chloro-2-(methylsulfinyl)quinolin-4(1H)-one]",> 10000 nM,> 2000 nM,> 2000 nM,900 nM,> 2000 nM,> 2000 nM,1260 nM,> 10000 nM,580 nM,> 2000 nM,> 10000 nM
"CC(=O)c1c(SCc2ccc(Cl)cc2)[nH]c2c(Br)ccc(Cl)c2c1=O [Compound 10, 3-acetyl-8-bromo-5-chloro-2-((4-chlorobenzyl)thio)quinolin-4(1H)-one]",> 10000 nM,> 2000 nM,> 2000 nM,> 2000 nM,> 2000 nM,> 2000 nM,> 2000 nM,> 10000 nM,> 2000 nM,> 2000 nM,> 10000 nM
"CC(=O)c1c(Sc2ccccc2)[nH]c2c(Br)ccc(Cl)c2c1=O [Compound 12, 3-acetyl-8-bromo-5-chloro-2-(phenylthio)quinolin-4(1H)-one]",> 10000 nM,> 2000 nM,> 2000 nM,> 2000 nM,> 2000 nM,> 2000 nM,> 2000 nM,> 10000 nM,> 2000 nM,> 2000 nM,> 10000 nM
"COc1ccccc1Sc1[nH]c2c(Br)ccc(Cl)c2c(=O)c1C(C)=O [Compound 14, 3-acetyl-8-bromo-5-chloro-2-((2-methoxyphenyl)thio)quinolin-4(1H)-one]",> 10000 nM,> 2000 nM,> 2000 nM,> 2000 nM,> 2000 nM,> 2000 nM,> 2000 nM,> 10000 nM,> 2000 nM,> 2000 nM,> 10000 nM
"CC(=O)c1c(Sc2ccc(Br)cc2)[nH]c2c(Br)ccc(Cl)c2c1=O [Compound 16, 3-acetyl-8-bromo-2-((4-bromophenyl)thio)-5-chloroquinolin-4(1H)-one]",> 10000 nM,> 2000 nM,> 2000 nM,> 2000 nM,> 2000 nM,> 2000 nM,> 2000 nM,> 10000 nM,> 2000 nM,> 2000 nM,> 10000 nM
"CSc1c(C(C)=O)c(=O)c2c(Cl)ccc(Br)c2n1C(C)=O [Compound 18, 1,1′-(8-bromo-5-chloro-2-(methylthio)-4-oxoquinoline-1,3(4H)-diyl)bis(ethan-1-one)]",> 10000 nM,> 2000 nM,> 2000 nM,> 2000 nM,> 2000 nM,> 2000 nM,> 2000 nM,> 10000 nM,> 2000 nM,> 2000 nM,> 10000 nM
"CC(=O)c1c([S+]([O-])Cc2ccccc2)n(C(=O)c2ccc(Br)cc2)c2c(Br)ccc(Cl)c2c1=O (centres unmarked) [Compound 20, 3-acetyl-2-(benzylsulfinyl)-8-bromo-1-(4-bromobenzoyl)-5-chloroquinolin-4(1H)-one]",> 10000 nM,> 2000 nM,> 2000 nM,1390 nM,1580 nM,> 2000 nM,1580 nM,> 2000 nM,> 2000 nM,> 2000 nM,> 10000 nM
"CC(=O)c1c(S(C)(=O)=O)n(C(=O)c2ccc(Br)cc2)c2c(Br)ccc(Cl)c2c1=O [Compound 21, 3-acetyl-8-bromo-1-(4-bromobenzoyl)-5-chloro-2-(methylsulfonyl)quinolin-4(1H)-one]",> 10000 nM,> 2000 nM,> 2000 nM,> 2000 nM,> 2000 nM,> 2000 nM,> 2000 nM,> 10000 nM,> 2000 nM,> 2000 nM,> 10000 nM

# More lines, main results first:
IC50 [1],"IC50 [2, 5]","IC50 [2, 6]","IC50 [2, 7]","IC50 [2, 8]","IC50 [2, 9]","IC50 [2, 10]","IC50 [2, 11]",IC50 [4],SMILES,"IC50 ([2]; MRC-5 cells, read-out: IC50)",IC50 [3]
> 10000 nM,> 2000 nM,> 2000 nM,1340 nM,> 2000 nM,> 2000 nM,1880 nM,> 10000 nM,700 nM,"CC(=O)c1c([S+](C)[O-])[nH]c2c(Br)ccc(Cl)c2c1=O (centres unmarked) [Compound 1, 3-acetyl-8-bromo-5-chloro-2-(methylsulfinyl)quinolin-4(1H)-one]",1340 nM,> 10000 nM
> 10000 nM,> 2000 nM,> 2000 nM,> 2000 nM,> 2000 nM,> 2000 nM,> 2000 nM,> 10000 nM,> 2000 nM,"CSc1[nH]c2c(Br)ccc(Cl)c2c(=O)c1C(C)=O [Compound 2, 3-acetyl-8-bromo-5-chloro-2-(methylthio)quinolin-4(1H)-one]",> 2000 nM,> 10000 nM
> 10000 nM,> 2000 nM,> 2000 nM,> 2000 nM,> 2000 nM,> 2000 nM,> 2000 nM,> 10000 nM,> 2000 nM,"CSc1c(C(C)=O)c(=O)c2c(Cl)ccc(Br)c2n1C [Compound 5, 3-acetyl-8-bromo-5-chloro-1-methyl-2-(methylthio)quinolin-4(1H)-one]",> 2000 nM,> 10000 nM
> 10000 nM,> 2000 nM,> 2000 nM,1310 nM,> 2000 nM,> 2000 nM,1840 nM,> 10000 nM,730 nM,"CC(=O)c1c([S+](C)[O-])[nH]c2c(Cl)ccc(Cl)c2c1=O (centres unmarked) [Compound 6, 3-acetyl-5,8-dichloro-2-(methylsulfinyl)quinolin-4(1H)-one]",> 2000 nM,> 10000 nM
> 10000 nM,> 2000 nM,> 2000 nM,1550 nM,> 2000 nM,> 2000 nM,> 2000 nM,> 10000 nM,> 2000 nM,"CC(=O)c1c([S+]([O-])Cc2ccc(Cl)cc2)[nH]c2c(Br)ccc(Cl)c2c1=O (centres unmarked) [Compound 11, 3-acetyl-8-bromo-5-chloro-2-((4-chlorobenzyl)sulfinyl)quinolin-4(1H)-one]",> 2000 nM,> 10000 nM
> 10000 nM,> 2000 nM,> 2000 nM,> 2000 nM,> 2000 nM,> 2000 nM,> 2000 nM,> 10000 nM,> 2000 nM,"CC(=O)c1c([S+]([O-])c2ccccc2)[nH]c2c(Br)ccc(Cl)c2c1=O (centres unmarked) [Compound 13, 3-acetyl-8-bromo-5-chloro-2-(phenylsulfinyl)quinolin-4(1H)-one]",> 2000 nM,> 10000 nM
> 10000 nM,> 2000 nM,> 2000 nM,1560 nM,> 2000 nM,> 2000 nM,> 2000 nM,> 10000 nM,> 2000 nM,"COc1ccccc1[S+]([O-])c1[nH]c2c(Br)ccc(Cl)c2c(=O)c1C(C)=O (centres unmarked) [Compound 15, 3-acetyl-8-bromo-5-chloro-2-((2-methoxyphenyl)sulfinyl)quinolin-4(1H)-one]",> 2000 nM,> 10000 nM
> 10000 nM,> 2000 nM,> 2000 nM,> 2000 nM,> 2000 nM,> 2000 nM,> 2000 nM,> 10000 nM,> 2000 nM,"CC(=O)c1c([S+]([O-])c2ccc(Br)cc2)[nH]c2c(Br)ccc(Cl)c2c1=O (centres unmarked) [Compound 17, 3-acetyl-8-bromo-2-((4-bromophenyl)sulfinyl)-5-chloroquinolin-4(1H)-one]",> 2000 nM,> 10000 nM
> 10000 nM,> 2000 nM,> 2000 nM,> 2000 nM,> 2000 nM,> 2000 nM,> 2000 nM,> 10000 nM,> 2000 nM,"CC(=O)c1c([S+](C)[O-])n(C(C)=O)c2c(Br)ccc(Cl)c2c1=O (centres unmarked) [Compound 19, 1,1′-(8-bromo-5-chloro-2-(methylsulfinyl)-4-oxoquinoline-1,3(4H)-diyl)bis(ethan-1-one)]",> 2000 nM,> 10000 nM
> 10000 nM,> 2000 nM,> 2000 nM,> 2000 nM,> 2000 nM,> 2000 nM,> 2000 nM,> 10000 nM,> 2000 nM,"CC(=O)c1c([S+](C)[O-])n(Cc2ccc(F)c(Cl)c2)c2c(Br)ccc(Cl)c2c1=O (centres unmarked) [Compound 22, 3-acetyl-8-bromo-5-chloro-1-(3-chloro-4-fluorobenzyl)-2-(methylsulfinyl)quinolin-4(1H)-one]",> 2000 nM,> 10000 nM
